What was measured:
Assay type in all cases: cell-based
S6K1 = S6K1 (Homo sapiens, UniProt P23443); test: S6K1 protein level in HEK293 cells, immunoblot; design: reduced endogenous SGK isoform or S6K1 expression when administered to HEK293 cells for 48 h; endogenous in cells; host or cells: HEK293
Method: A medium length linker composed of three PEG units was used in the first instance (Figure 1B and C). […] After 48 h of PROTAC treatment, cell lysates were analyzed by immunoblot analysis, and protein expression under each condition was quantified relative to the DMSO-only control. […] DAT1 reduced SGK3 expression by 60% at 1 μM and 75% at 10 μM after 48 h (Figure 1D). […] As expected, inhibition of CUL2 neddylation by means of the inhibitor MLN4924 (3 μM) or proteasome inhibition (MG132, 50 μM) blocked DAT1-induced degradation of SGK3 (Figure S1C).
All cell treatments were carried out as described in figure legends, to a final DMSO concentration of 0.1% (v/v). Lysates were quantified. Immunoblotting was performed using standard procedures, described in brief below. Lysate concentration was quantified by Bradford Assay, and 10 μg of lysate was loaded in the LDS sample buffer for SDS-PAGE electrophoresis on Novex 4–12% Bis–Tris gels. Proteins were electrophoretically transferred onto nitrocellulose membranes (Amersham Protran 0.45 μm NC; GE Healthcare) at 80 V for 80 min on ice in transfer buffer. Transferred membranes were blocked with 5% (w/v) nonfat dry milk dissolved in TBS-T [20 mM Tris/HCl, pH 7.5, 150 mM NaCl, and 0.1% (v/v) Tween 20] at RT for 30 min, before incubation with the primary antibody overnight at 4 °C. The signal was produced with near-infrared secondary antibodies and detected using a Licor Biosciences Odyssey System, and the signal was quantified in Image Studio Lite.

[1] = tested on: mTORC1-mediated phosphorylation of S6K1 at Thr389; test: mTORC1 signaling in ZR-75-1 cells treated with PI3K or Akt inhibitor, immunoblot; conditions: ZR-75-1, 5 days 1 μM GDC0941 or AZD5363; 0.3 μM
Method: We therefore aimed to investigate the effect that degradation of SGK3 would have on this resistance pathway and whether SGK3-PROTAC1 treatment could reverse inhibitor resistance. To investigate the effect of SGK3-PROTAC1 under these conditions, we treated CAMA-1 (Figure 5A,C) or ZR-75-1 (Figure 5B,D) for 5 days with either a class 1A PI3K inhibitor (GDC0941 1 μM;[38]Figure 5A,B) or an Akt inhibitor (AZD5363, 1 μM;[39]Figure 5C,D). These cells were treated with SGK3-PROTAC1 or cisSGK3-PROTAC1 (0.3 μM) for either 5 days in combination with the inhibitors or 8 h before lysis.
Figure 5 SGK3-PROTAC1-mediated degradation of SGK3 inhibits Akt-independent activation of mTORC1 in cancer cell lines treated with Akt or PI3K inhibitors. CAMA-1 (A, C) or ZR-75-1 (B, D) were treated for 5 days with 1 μM GDC0941 (A, B) or 1 μM AZD5363 (C, D). […]
All cell treatments were carried out as described in figure legends, to a final DMSO concentration of 0.1% (v/v). Lysates were quantified. […] Lysate concentration was quantified by Bradford Assay, and 10 μg of lysate was loaded in the LDS sample buffer for SDS-PAGE electrophoresis on Novex 4–12% Bis–Tris gels. […] The signal was produced with near-infrared secondary antibodies and detected using a Licor Biosciences Odyssey System, and the signal was quantified in Image Studio Lite.

ZR-75-1 cells = test: Cell growth (confluency, Incucyte S3); conditions: for growth in combination with GDC0941 or AZD5363: 1 μM GDC0941 or AZD5363, SGK3-PROTAC1/cisSGK3-PROTAC1 0.3 μM, 14H 3 μM
Method: (§1) Figure 6 SGK3-PROTAC1-mediated degradation of SGK3 further inhibiting the growth of cancer cell lines treated with PI3K-Akt pathway inhibitors. CAMA-1 (A, C) and ZR-75-1 (B, D) were treated with compounds as indicated either as monotherapy or in combination, and confluency was measured on the Incucyte S3 every 4 h for up to 4 weeks.
(§2) For growth assays, ZR-75-1 cells were seeded in 96-well plates at a density of 6000 cells/well and left to adhere overnight. Cells were then treated with compounds as described in the figure legends and imaged every 4 h on the Incucyte S3 (Essen Bioscience) for up to 4 weeks to give a measure of cell confluency. Media were refreshed every 4–5 days.
(§3) Supplementary Figure S3. SGK3-PROTAC compounds have no effect on cell growth. CAMA-1 and ZR-75-1
(§4) confluency was m easured every 4 h on Incucyte S3.
(§5) (1 picture or pasted object on this page, not shown here)

CAMA-1 cells = test: Cell growth (confluency, Incucyte S3); conditions: for growth in combination with GDC0941 or AZD5363: 1 μM GDC0941 or AZD5363, SGK3-PROTAC1/cisSGK3-PROTAC1 0.3 μM, 14H 3 μM
Method: as §1, §2, §3, §4, §5

Chain of S6K1 (P23443 whole entry, canonical isoform): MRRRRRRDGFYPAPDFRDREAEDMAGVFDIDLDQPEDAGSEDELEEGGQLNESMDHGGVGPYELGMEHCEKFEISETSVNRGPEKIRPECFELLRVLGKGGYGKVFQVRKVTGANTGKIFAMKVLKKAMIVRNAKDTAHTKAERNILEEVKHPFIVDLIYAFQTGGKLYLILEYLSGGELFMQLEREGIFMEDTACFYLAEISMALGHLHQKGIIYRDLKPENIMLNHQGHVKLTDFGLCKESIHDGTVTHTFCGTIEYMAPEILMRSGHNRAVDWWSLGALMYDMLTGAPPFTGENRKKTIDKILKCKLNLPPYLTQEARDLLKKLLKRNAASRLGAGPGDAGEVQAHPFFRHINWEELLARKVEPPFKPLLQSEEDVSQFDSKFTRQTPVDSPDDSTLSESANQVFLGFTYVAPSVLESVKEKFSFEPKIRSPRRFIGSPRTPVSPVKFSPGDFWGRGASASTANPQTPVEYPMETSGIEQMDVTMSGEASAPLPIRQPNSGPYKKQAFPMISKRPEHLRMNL

S6K1 level (S6K1; HEK293, 48 h, up to 10 μM) | SMILES | S6K1 degradation (S6K1; HEK293, 8 h, doses of up to 1 μM) | S6K1 level (S6K1; HEK293, 48 h, 0.1 μM) | S6K1 degradation (S6K1; HEK293, 48 h, 1–10 μM) | phosphorylation of S6K1 at Thr389 [1] | growth, compound alone (ZR-75-1 cells; ZR-75-1) | suppression of growth compared with 14H (3 μM) (ZR-75-1 cells; ZR-75-1, 0.3 μM, with AZD5363 1 μM) | inhibition of cell growth compared with 14H (3 μM) (ZR-75-1 cells; ZR-75-1, 0.3 μM, with GDC0941 1 μM) | growth in combination with GDC0941 or AZD5363 (ZR-75-1 cells; ZR-75-1) | growth, compound alone (CAMA-1 cells; CAMA-1) | suppression of growth compared with 14H (3 μM) (CAMA-1 cells; CAMA-1, 0.3 μM, with AZD5363 1 μM) | inhibition of cell growth compared with 14H (3 μM) (CAMA-1 cells; CAMA-1, 0.3 μM, with GDC0941 1 μM) | growth in combination with GDC0941 or AZD5363 (CAMA-1 cells; CAMA-1)
 | Cc1ccc(F)c(S(=O)(=O)Nc2ccc(-c3nc(OC[C@H]4CN(CCCCCCOCCOCCOCC(=O)N[C@H](C(=O)N5C[C@H](O)C[C@H]5C(=O)NCc5ccc(-c6scnc6C)cc5)C(C)(C)C)CCO4)c4cn[nH]c4n3)cc2)c1 [SGK3-PROTAC1] | no degradation | without effecting | moderate degradation | suppressed | no effect on growth | to a similar extent | to a greater extent | further reduced the growth | no effect on growth | to a similar extent | to a greater extent | further reduced the growth
not significantly impacted | Cc1ccc(F)c(S(=O)(=O)Nc2ccc(-c3nc(OC[C@H]4CN(CCOCCOCCOCC(=O)N[C@H](C(=O)N5C[C@H](O)C[C@H]5C(=O)NCc5ccc(-c6scnc6C)cc5)C(C)(C)C)CCO4)c4cn[nH]c4n3)cc2)c1 [DAT1] |  |  |  |  |  |  |  |  |  |  |  | 
 | Cc1ccc(F)c(S(=O)(=O)Nc2ccc(-c3nc(OC[C@H]4CN(CCCCCCOCCOCCOCC(=O)N[C@H](C(=O)N5C[C@@H](O)C[C@H]5C(=O)NCc5ccc(-c6scnc6C)cc5)C(C)(C)C)CCO4)c4cn[nH]c4n3)cc2)c1 [cisSGK3-PROTAC1] |  |  |  | no significant effect |  |  |  | minimal effect |  |  |  | minimal effect

Reference: paper PMC6757289, “Design and Characterization of SGK3-PROTAC1, an Isoform Specific SGK3 Kinase PROTAC Degrader” (ACS Chemical Biology, 2019)
